Literature values, collected in US20230340373A1, “CLEANING WIPES” (Tygrus LLC, priority 2022, published 2023).

Conditions: 25 C; cited from earlier work

**Q.** With `C=CCc1ccc(O)c(OC)c1` [Eugenol] as the compound, how does the pKa read?
**A.** Its pKa is 10.19.
